Assay [1] concerns DSS-induced enteritis model. Nature of the assay: DSS enteritis (inflammatory bowel disease) model. The assay is classed as in vivo, C57BL/6J mice. The note with it: vs PBS buffer group; for Il-6 gene expression in distal colon: RT-qPCR; for length of the colon: oral 3 days in recovery period; for body weight (weight gain rate): recovery period after DSS, oral 6 days. As for the experimental part: In order to confirm the efficacy of the peptides of the present invention for preventing and treating inflammatory bowel disease, an experiment was conducted using an animal model of enteritis. As the enteritis model, enteritis was induced by dissolving DSS in drinking water at a concentration of 1.2% and then administered to 10-week-old specific pathogen free (SPF) male C57BL/6J mice through the drinking water for 6 days, and then the drinking water was replaced with water to give a recovery period. During the recovery period, PEP002, PEP003, PEP004, or PEP005 was dissolved in PBS buffer at a concentration of 4.3 μM and then orally administered to the mice by 150 μL per animal once a day at the same time, and the same volume of PBS buffer was orally administered to the control group. During the recovery period, oral administration was performed 6 times for 6 days to examine the rate of increase in body weight due to recovery from enteritis. In addition, in order to examine the length of the colon, the degree of inflammation in the colon, and the degree of recovery of the colon tissue, the test was terminated after oral administration 3 times for 3 days. At the end of the experiment, the length of the colon was measured, a part of the distal colon was rapidly cooled in liquid nitrogen, and RNA was extracted using Trizol. Reverse transcriptase was added to the obtained RNA and reacted to synthesize cDNA, and SYBR Green and primers were added to perform quantitative real-time PCR (RT-qPCR), and then the level of Il-6 gene expression was quantified. In addition, a part of the distal colon was fixed in 10% NBF at room temperature for 24 hours or more, and then embedded in paraffin to prepare a 5 μm-thick section, and the section was stained with hematoxylin and eosin (H&E). The H&E-stained tissue sections were observed under an optical microscope and the histopathological degree of enteritis was evaluated using a histologic colitis scoring system (Table 4). [table]
For orientation: Quantitative PCR measures a nucleic acid by following its amplification.

The subject of assay [2] is LPS-induced cognitive and memory disorder mice. Nature of the assay: Novel object recognition test in LPS-induced cognitive/memory disorder model. It is filed as in vivo, C57BL/6J mice. As to conditions: oral; LPS 250 μg/kg/day for 7 days; vs control group. How it is done: LPS was intraperitoneally injected to C57BL/6J male mice at 250 μg/kg/day daily for 7 days to induce cognitive and memory disorders. Amuc_1409, a protein derived from Akkermansia muciniphila, was orally administered to the mice by 5 μg daily from one week before LPS administration until the cognitive and memory test was performed. PEP002, PEP003, PEP004, or PEP005 was dissolved in PBS buffer at a concentration of 2.4 μM and then orally administered to the mice by 150 μL per animal daily at the same time once a day from 3 days before LPS administration until the cognitive and memory test was performed. To the control group (vehicle), PBS was orally administered in the same volume.
In order to test the effect of improving cognitive function in mice with cognitive and memory disorder administered with Amuc_1409 or PEP002, PEP003, PEP004, or PEP005, a novel object recognition test was performed. When the object seen 24 hours ago and a novel object were provided, the exploration time and the number of explorations for the novel object were measured to test cognition and memory.

Assay [3] relates to C57BL/6J naturally aged mice. The experiment in a line: Skin aging in naturally aged mice (skin H&E). As to conditions: oral, vs PBS buffer group. The assay is classed as in vivo, C57BL/6J mice. How it is done:
As an animal model of aging, 19- to 22-month old C57BL/6J naturally aged mice were used. Solid feed and water were sufficiently supplied until the day of the experiment, the environment was maintained at a temperature of 22° C. 2° C., humidity of 55%±15%, and a 12-hour light/dark cycle, and the mice were used for the experiment. Amuc_1409 and PEP001 were dissolved in PBS buffer at 10 μg/150 μL and 0.7 μg/150 μL, respectively, and then orally administered to the naturally aged mice by 150 μL per animal at the same time once a day for […], and novel tetrapeptides PEP006, PEP007, PEP008, PEP009, and PEP010 and novel tripeptides PEP011, PEP012, and PEP013 were each dissolved in PBS buffer at a concentration of 0.2 μg/150 μL and then orally administered to the naturally aged mice by 150 μL per animal at the same time once a day for 10 weeks. To the control group, PBS buffer was orally administered in the same manner.
On the day to be the 10th week of administration, a part of the tissue was excised from the back of the mouse and fixed in 10% formalin for 24 hours or more for histopathological analysis.
The fixed skin tissue was embedded in paraffin to prepare a 5 μm-thick section, and the skin section was H&E-stained with hematoxylin and eosin to analyze the skin epidermis thickness and the number of hair follicles.

A further assay concerns naturally aged mice. The experiment in a line: NORT and Y-maze alteration test in naturally aged mice. The assay is classed as in vivo, C57BL6/J mice. The note with it: oral; for spontaneous alteration, Y-maze alteration test: 0.2 μg daily 5 days a week for 8 weeks, vs PBS buffer. As for the experimental part: An experiment was conducted to verify the efficacy of the peptides of the present invention in an animal model of cognitive/memory disorder due to natural aging.
Amuc_1409 was orally administered to 16.5-month-old male mice by 4.5 μg daily 5 days a week for 8 weeks, and PEP002, PEP003, PEP004, or PEP005 was dissolved in PBS buffer at a concentration of 2.4 μM and then orally administered to 16-month-old male mice by 150 μL per animal at the same time once a day for 3 weeks. To the control group (vehicle), PBS was orally administered in the same volume.
In the case of the groups administered with the novel tetrapeptides and tripeptides (PEP006 to PEP013), each peptide was orally administered to 19-month-old female C57BL6/J mice by 0.2 μg daily 5 days a week for 8 weeks. At this time, the peptide was dissolved in PBS buffer and orally administered to the mice at 0.2 μg/150 μL per animal at the same time once a day. To the vehicle group, PBS was orally administered in the same volume. At this time, 4-month-old female C57BL6/J mice were used as a young control group.
A novel object recognition test (NORT) was performed to test the effect of improving cognitive function in naturally aged mice. When the object seen 24 hours ago and a novel object were provided, the exploration time and the number of explorations for the novel object were measured to test cognition and memory. In addition, a Y-maze alteration test was performed to confirm the effect of enhancing spatial perception and memory. In the Y-maze alteration test, spontaneous alteration (%) was evaluated by measuring the order of entering each Y-shaped maze (A, B and C). […] The spontaneous alteration was calculated and expressed as the total number of alterations/(total number of entries−2)×100.

Regarding GAY [PEP005], in assay [1], the “Il-6 gene expression in distal colon” value is “significantly decreased”, the “length of the colon” value was “significantly increased”, the “body weight (weight gain rate)” value is listed as “significantly increased” and the “degree of crypt damage (H&E)” value is on record as “significantly decrease”. The “degree or extent of intestinal inflammation (H&E)” value (shortened to “degree or extent”) in assay [1] is recorded as “decreased”. For the same molecule, the “memory and cognitive function, novel object recognition test” value (from here on “memory and cognitive function”) in assay [2] was “improved”.
For AVS (AVSSIKGAY) [PEP004], in assay [1], the “Il-6 gene expression in distal colon” value is given as “significantly decreased”, the “length of the colon” value is “significantly increased”, the “body weight (weight gain rate)” value is reported as “significantly increased” and the “degree of crypt damage (H&E)” value is listed as “significantly decrease”. In assay [1], the “degree or extent” value is listed as “decreased”. Besides, in assay [2], the “memory and cognitive function” value is reported as “improved”.
With AGAY (PEP006), in assay [3], the “number of hair follicles” value is listed as “tended to increase” and the “thickness of the skin epidermis” value is given as “significantly increased”.
With VGAY (PEP010), the “spontaneous alteration, Y-maze alteration test” value with naturally aged mice was “significantly improved”. Besides, in assay [3], the “number of hair follicles” value is recorded as “tended to increase” and the “thickness of the skin epidermis” value is recorded as “significantly increased”.
Consider AVSSIKGAY (PEP001), for which the “thickness of the skin epidermis” value in assay [3] is “significantly increased”.
RGAY (PEP007): in assay [3], the “number of hair follicles” value is on record as “tended to increase” and the “thickness of the skin epidermis” value was “significantly increased”.
In the same order, the values of AGS [PEP012] are “tended to increase” and “significantly increased”.
For AVSSI (PEP002), in assay [1], the “Il-6 gene expression in distal colon” value is “significantly decreased”, the “length of the colon” value was “significantly increased”, the “body weight (weight gain rate)” value is listed as “tended to increase” and the “degree of crypt damage (H&E)” value is listed as “significantly decrease”. In addition, the “degree or extent” value in assay [1] was “decreased”. Also, the “memory and cognitive function” value in assay [2] was “improved”.
As to KGAY (PEP003), in assay [1], the “Il-6 gene expression in distal colon” value was “significantly decreased”, the “length of the colon” value is “tended to increase”, the “body weight (weight gain rate)” value was “tended to increase” and the “degree of crypt damage (H&E)” value is “significantly decrease”. The “degree or extent” value in assay [1] is listed as “decreased”. For the same molecule, in assay [2], the “memory and cognitive function” value is “improved”.
On to AIS [PEP013], for which, in assay [3], the “number of hair follicles” value is “tended to increase” and the “thickness of the skin epidermis” value was “increased close to a significant level”.
The corresponding values for SGAY (PEP009) are “tended to increase” and “significantly increased”.
For the molecule IGAY (PEP008), the “spontaneous alteration, Y-maze alteration test” value in the assay on naturally aged mice is reported as “significantly improved”. In addition, in assay [3], the “number of hair follicles” value was “tended to increase” and the “thickness of the skin epidermis” value is recorded as “significantly increased”.
For AQS [PEP011], in assay [3], the “thickness of the skin epidermis” value is given as “significantly increased”.

B1: Amuc_1409: SEQ ID NO: 15, functional fragment obtained by eliminating the leader sequence from SEQ ID NO: 14; protein derived from Akkermansia muciniphila (protein)
chain: IPESSVPAAAVSSIKGAYPNAGPIEWDSEMHGMERIYEAEFRINGFQFDVKIAPDGKIVRIKEEIAASSLPEAVRASVLKRYPGCRIKEAEKITEGELVRYKVEVADSRDDYDVLIAPDGNILHVDR
modifications: Amuc_1409_fragment
notes: protein derived from Akkermansia muciniphila
For B1, the “cognition and memory, novel object recognition test” value in the assay with naturally aged mice (naturally aged mice, vs control group) is on record as “significantly improved or tended to be improved”. Besides, in assay [3], the “thickness of the skin epidermis” value was “significantly increased”. Further, in assay [2], the “memory and cognitive function” value was “improved”.

Source of the values: US20240209022A1, “NOVEL PEPTIDE HAVING ANTI-INFLAMMATORY AND TISSUE REGENERATIVE ACTIONS” (KOREA RESEARCH INSTITUTE OF BIOSCIENCE AND BIOTECHNOLOGY, priority 2020, published 2024).
